What was measured:
[1] = in vivo; details: both, dog, serum, oral, 15 mg/kg BW
Description: (§1) Methodology: The study was designed to test the feeding of melatonin on the absorption of cephalexin. Dogs (n=24, Body Weight (BW) range: 7-14 kg, age range: 1.5 to 14 yrs) were divided into a test group and a control group. The respective groups were balanced for gender.
(§2) The test group received a single dose of melatonin (1 mg/kg BW) at 12:00 pm, followed by a single dose of cephalexin (15 mg/kg BW) between 1:00 and 2:00 pm. Dosing with melatonin and cephalexin were both by oral administration to the dogs. The study evaluated cephalexin absorption by determining the pharmacokinetics of cephalexin appearance in serum subsequent to the melatonin administration. […] Samples for pharmacokinetic analysis were taken at 15, 30, 45, and 60 min, as well as 1.5, 2, 2.5, 3, 3.5, 4, 6, and 8 hours after oral dosing of cephalexin. Cephalexin concentration was determined by high pressure liquid chromatograph. Serum melatonin content was analyzed before and after the oral administration time, e.g., at −5, −3, −1, −0.5 hour before, 0 (dosing time), and at 0.5, 1, 2, 3, 4, and 6 hours after oral dosing of melatonin. Melatonin was quantified by radioimmunoassay procedures.

[2] = in vivo; details: both, Labrador Retriever, dog, serum, oral, 15 mg/kg BW
Description: (§3) Methology: The study used n=40 Labrador Retriever dogs (BW range: 21-40 kg) to test the oral ingestion of melatonin compared to no-melatonin placebo control on the absorption of cephalexin, an antibiotic that also serves as a marker substrate for small peptides. The dogs were balanced for gender and the ages ranged from 1.5 to 9 years old. The study evaluated cephalexin absorption by orally administering a single 15 mg/kg BW dose of cephalexin to dogs at 2:00 pm, and subsequently determining the pharmakinetics of cephalexin appearance in serum. Dogs were randomized into 5 different treatment groups and received a single oral dose of melatonin (0.01, 0.1, 1, or 3 mg/kg BW) in a gelatin capsule or placebo simultaneously as the cephalexin dose. The oral dose was immediately followed by an oral administration of 60 mL of water by a 60 mL irrigation syringe. The melatonin dose diluent and placebo pill were the inert carrier, avicel. Cephalexin pharmakinetics were analyzed at 30 and 60 min after dosing and 1.5, 2, 2.5, 3, 4, and 6 hours after oral dosing of cephalexin. Cephalexin concentration was determined by high pressure liquid chromatograph.

[3] = Serum melatonin pharmacokinetics after oral melatonin, radioimmunoassay (Example 1); type: in vivo, Dogs
Source text: Melatonin was quantified by radioimmunoassay procedures.

[4] = Day/night activity, Actiwatch monitor, 24 h before and 48 h after oral melatonin (Example 2); type: in vivo, Labrador Retriever dogs; details: for Activity (Actiwatch): start of day 2
Description: Dogs were fitted with an Actiwatch monitor 24 hours before oral ingestion of one of the melatonin doses, specifically at 2 PM on day 1. Following the oral administration of melatonin, the activity monitoring continued for another 48 hours, at which time the monitors were removed and the data collected for analysis. The dogs were exposed to 11.5 h light:12.5 h dark cycle, in which kennel lighting and natural light was combined over the 11.5 hour period. In the morning the light cycle began with exposure to kennel lighting at 6 AM and darkness onset occurred at 5:30 PM with sunset. For data analysis, activity was separated into three periods of time, afternoon light phase (2 PM to 5:30 PM, 3.5 h duration), dark phase (5:30 PM to 6 AM, 12.5 h duration), and morning light phase (6 AM to 2 PM, 8 h duration). For data analysis purposes, a 24 hour period is from 2:00 PM to 1:59 PM.

[5] = melatonin 1 mg/kg BW oral before cephalexin 15 mg/kg BW oral
Description: as §1, §2

[6] = both, Labrador Retriever, dog, in vivo, po, 3 mg/kg
Description: as §3

[7] = Titration of oral melatonin dose on cephalexin absorption: serum pharmacokinetics of cephalexin (Example 2)
Description: as §3

CC1=C(C(=O)O)N2C(=O)[C@@H](NC(=O)[C@H](N)c3ccccc3)[C@H]2SC1 [Cephalexin, cephalexin]
concentration at 0.25 h [1]: 790 ng/mL
concentration at 0.5 h [1]: 4170 ng/mL
concentration at 0.75 h [1]: 8190 ng/mL
concentration at 1 h [1]: 10900 ng/mL
concentration at 1.5 h [1]: 13900 ng/mL
concentration at 2 h [1]: 13700 ng/mL
concentration at 2.5 h [1]: 14300 ng/mL
concentration at 3 h [1]: 13000 ng/mL
concentration at 3.5 h [1]: 11800 ng/mL
concentration at 4 h [1]: 9900 ng/mL
concentration at 6 h [1]: 5910 ng/mL
concentration at 8 h [1]: 3730 ng/mL
concentration at 0.5 h [2]: 2010 ng/mL
concentration at 1 h [2]: 6280 ng/mL
concentration at 1.5 h [2]: 9920 ng/mL
concentration at 2 h [2]: 11800 ng/mL
concentration at 2.5 h [2]: 12400 ng/mL
concentration at 3 h [2]: 12200 ng/mL
concentration at 4 h [2]: 11300 ng/mL
concentration at 6 h [2]: 7570 ng/mL

COc1ccc2[nH]cc(CCNC(C)=O)c2c1 [Melatonin, 5-methoxy-N-acetyltryptamine]
concentration at 1 h ([3]; dog, serum, melatonin 1 mg/kg BW oral at 12:00 pm, sample 1:00 pm): 9.55 ng/mL
concentration at 1.5 h ([3]; dog, serum, melatonin 1 mg/kg BW oral at 12:00 pm, sample 1:30 pm): 8.97 ng/mL
concentration at 2 h ([3]; dog, serum, melatonin 1 mg/kg BW oral at 12:00 pm, sample 2:00 pm): 4.79 ng/mL
concentration at 3 h ([3]; dog, serum, melatonin 1 mg/kg BW oral at 12:00 pm, sample 3:00 pm): 1.46 ng/mL
concentration at 4 h ([3]; dog, serum, melatonin 1 mg/kg BW oral at 12:00 pm, sample 4:00 pm): 0.747 ng/mL
concentration at 5 h ([3]; dog, serum, melatonin 1 mg/kg BW oral at 12:00 pm, sample 5:00 pm): 0.273 ng/mL
concentration at 7 h ([3]; dog, serum, melatonin 1 mg/kg BW oral at 12:00 pm, sample 7:00 pm): 0.0885 ng/mL
concentration at -3 h ([3]; dog, serum, melatonin 1 mg/kg BW oral at 12:00 pm, sample 9:00 am (before dosing)): 3.9 pg/mL
concentration at -1 h ([3]; dog, serum, melatonin 1 mg/kg BW oral at 12:00 pm, sample 11:00 am (before dosing)): 0.5 pg/mL
concentration at 0 h ([3]; dog, serum, melatonin 1 mg/kg BW oral at 12:00 pm, sample 12:00 pm (dosing time)): 0.0184 ng/mL
concentration at 0.5 h ([3]; dog, serum, melatonin 1 mg/kg BW oral at 12:00 pm, sample 12:30 pm): 10.7 ng/mL
Melatonin appearance in serum ([3]; dogs that ingested melatonin 1 mg/kg BW, versus baseline levels of control dogs): increased significantly for up to 6 hours after ingestion
Activity (Actiwatch) ([4]; melatonin 0.01 mg/kg BW oral at 2 PM, Afternoon Light Phase (2 PM-5:30 PM), Day 1 (before dosing)): 30064
Activity (Actiwatch) ([4]; melatonin 0.01 mg/kg BW oral at 2 PM, Afternoon Light Phase (2 PM-5:30 PM), Day 2): 44935
Activity (Actiwatch) ([4]; melatonin 0.01 mg/kg BW oral at 2 PM, Afternoon Light Phase (2 PM-5:30 PM), Day 3): 39386
Activity (Actiwatch) ([4]; melatonin 0.01 mg/kg BW oral at 2 PM, Dark Phase (5:30 PM-6 AM), Day 1 (before dosing)): 32346
Activity (Actiwatch) ([4]; melatonin 0.01 mg/kg BW oral at 2 PM, Dark Phase (5:30 PM-6 AM), Day 2): 30930
Activity (Actiwatch) ([4]; melatonin 0.01 mg/kg BW oral at 2 PM, Dark Phase (5:30 PM-6 AM), Day 3): 34140
Activity (Actiwatch) ([4]; melatonin 0.01 mg/kg BW oral at 2 PM, Morning Light Phase (6 AM-2 PM), Day 1 (before dosing)): 140160
Activity (Actiwatch) ([4]; melatonin 0.01 mg/kg BW oral at 2 PM, Morning Light Phase (6 AM-2 PM), Day 2): 128216
Activity (Actiwatch) ([4]; melatonin 0.01 mg/kg BW oral at 2 PM, Morning Light Phase (6 AM-2 PM), Day 3): 120706
Activity (Actiwatch) ([4]; melatonin 0.1 mg/kg BW oral at 2 PM, Afternoon Light Phase (2 PM-5:30 PM), Day 1 (before dosing)): 28140
Activity (Actiwatch) ([4]; melatonin 0.1 mg/kg BW oral at 2 PM, Afternoon Light Phase (2 PM-5:30 PM), Day 2): 30124
Activity (Actiwatch) ([4]; melatonin 0.1 mg/kg BW oral at 2 PM, Afternoon Light Phase (2 PM-5:30 PM), Day 3): 21497
Activity (Actiwatch) ([4]; melatonin 0.1 mg/kg BW oral at 2 PM, Dark Phase (5:30 PM-6 AM), Day 1 (before dosing)): 38464
Activity (Actiwatch) ([4]; melatonin 0.1 mg/kg BW oral at 2 PM, Dark Phase (5:30 PM-6 AM), Day 2): 30753
Activity (Actiwatch) ([4]; melatonin 0.1 mg/kg BW oral at 2 PM, Dark Phase (5:30 PM-6 AM), Day 3): 32849
Activity (Actiwatch) ([4]; melatonin 0.1 mg/kg BW oral at 2 PM, Morning Light Phase (6 AM-2 PM), Day 1 (before dosing)): 133337
Activity (Actiwatch) ([4]; melatonin 0.1 mg/kg BW oral at 2 PM, Morning Light Phase (6 AM-2 PM), Day 2): 130972
Activity (Actiwatch) ([4]; melatonin 0.1 mg/kg BW oral at 2 PM, Morning Light Phase (6 AM-2 PM), Day 3): 99800
Activity (Actiwatch) ([4]; melatonin 1 mg/kg BW oral at 2 PM, Afternoon Light Phase (2 PM-5:30 PM), Day 1 (before dosing)): 34376
Activity (Actiwatch) ([4]; melatonin 1 mg/kg BW oral at 2 PM, Afternoon Light Phase (2 PM-5:30 PM), Day 2): 44889
Activity (Actiwatch) ([4]; melatonin 1 mg/kg BW oral at 2 PM, Afternoon Light Phase (2 PM-5:30 PM), Day 3): 31184
Activity (Actiwatch) ([4]; melatonin 1 mg/kg BW oral at 2 PM, Dark Phase (5:30 PM-6 AM), Day 1 (before dosing)): 47178
Activity (Actiwatch) ([4]; melatonin 1 mg/kg BW oral at 2 PM, Dark Phase (5:30 PM-6 AM), Day 2): 26733
Activity (Actiwatch) ([4]; melatonin 1 mg/kg BW oral at 2 PM, Dark Phase (5:30 PM-6 AM), Day 3): 49958
Activity (Actiwatch) ([4]; melatonin 1 mg/kg BW oral at 2 PM, Morning Light Phase (6 AM-2 PM), Day 1 (before dosing)): 155482
Activity (Actiwatch) ([4]; melatonin 1 mg/kg BW oral at 2 PM, Morning Light Phase (6 AM-2 PM), Day 2): 151573
Activity (Actiwatch) ([4]; melatonin 1 mg/kg BW oral at 2 PM, Morning Light Phase (6 AM-2 PM), Day 3): 126103
Activity (Actiwatch) ([4]; melatonin 3 mg/kg BW oral at 2 PM, Afternoon Light Phase (2 PM-5:30 PM), Day 1 (before dosing)): 30548
Activity (Actiwatch) ([4]; melatonin 3 mg/kg BW oral at 2 PM, Afternoon Light Phase (2 PM-5:30 PM), Day 2): 45730
Activity (Actiwatch) ([4]; melatonin 3 mg/kg BW oral at 2 PM, Afternoon Light Phase (2 PM-5:30 PM), Day 3): 35034
Activity (Actiwatch) ([4]; melatonin 3 mg/kg BW oral at 2 PM, Dark Phase (5:30 PM-6 AM), Day 1 (before dosing)): 33517
Activity (Actiwatch) ([4]; melatonin 3 mg/kg BW oral at 2 PM, Dark Phase (5:30 PM-6 AM), Day 2): 35926
Activity (Actiwatch) ([4]; melatonin 3 mg/kg BW oral at 2 PM, Dark Phase (5:30 PM-6 AM), Day 3): 33492
Activity (Actiwatch) ([4]; melatonin 3 mg/kg BW oral at 2 PM, Morning Light Phase (6 AM-2 PM), Day 1 (before dosing)): 139265
Activity (Actiwatch) ([4]; melatonin 3 mg/kg BW oral at 2 PM, Morning Light Phase (6 AM-2 PM), Day 2): 153805
Activity (Actiwatch) ([4]; melatonin 3 mg/kg BW oral at 2 PM, Morning Light Phase (6 AM-2 PM), Day 3): 117374
Activity during the dark phase immediately following oral ingestion, compared to placebo ([4]; melatonin 0.01, 0.1, and 1 mg/kg groups): decrease compared to the placebo groups
Influence on activity, late afternoon light phase (2 pm to 5:30 pm) ([4]; oral melatonin 0.01, 0.1, 1, and 3 mg/kg BW): did not demonstrate any influence of oral melatonin on activity
Impact on activity in the daylight hours ([4]; oral melatonin 0.01-3 mg/kg BW): does not seem to impact activity of dogs in the daylight hours
Nighttime activity ([4]; oral melatonin administered in the afternoon): nighttime activity is slightly reduced
Effect of oral melatonin on absorption of cephalexin [5]: increased the absorption of cephalexin
Cephalexin AUC greater than placebo group [6]: 45-34
Amount of cephalexin appearing in the blood compared to the placebo group ([7]; melatonin 0.01 mg/kg BW oral): slightly decreased
Effect on absorption of cephalexin compared to placebo dogs ([7]; melatonin 0.1, 1, and 3 mg/kg BW oral): an increase in the absorption of cephalexin

— patent US8492331B2, “Methods for increasing absorption of peptides, peptidomimetics and other gastrointestinal transport protein substrates” (Nestec S.A., priority 2008, dated 2013)
